Data on one molecule can be found in patent publication US9018236B2, “Cyclodextrin-based microemulsions, and dermatological uses thereof” (Precision Dermatology, Inc., priority 2012, dated 2015).

Data set [1] in a line: Solubility/dispersibility of retinol in the Labrasol-HPGCD-water microemulsion system. The data set is classed as physicochemical. The settings on record: final retinol concentration 1.2%; 15% Labrasol, 5% HPGCD in water.
From the text: Any two components (examples: Labrasol®-water, HPXCD-water, or Labrasol®-HPXCD) were mixed (in different ratios) in different scintillation vials and then the third component was titrated to each vial until a clear-to-turbid or turbid-to-clear transition occurred (in simple situations). Finally wt % percentages data for each component (Labrasol®, water, and cyclodextrin) were plotted to construct the ternary phase diagram.
Cyclodextrin used: hydroxypropyl-X-cyclodextrin (X=alpha, beta, or gamma).
Drug can be dissolved in the individual components or any of the two-component combination systems, followed by microemulsion formulation. Alternatively Drug can be directly added to the previously prepared microemulsion phase followed by shaking until a clear solution is achieved (when the achievable drug concentration is known previously).
For data set [2] the following is noted: cited from earlier work.

Consider `CC1=C(/C=C/C(C)=C/C=C/C(C)=C/CO)C(C)(C)CCC1` [Retinol], for which the “miscibility in Labrasol-HPGCD-water microemulsion system” value in data set [1] is listed as “complete miscibility”. The miscibility in water entry in data set [2] is given as “immiscible”.
